Reference: BigSolDB 2.1

c1ccc(-c2ccc(C(c3ccccc3)n3ccnc3)cc2)cc1 (stereo not given)
solubility (mole fraction)
Conditions	278.15 K	283.15 K	288.15 K	293.15 K	298.15 K	303.15 K	308.15 K	313.15 K	318.15 K
in isopropanol	0.00118	0.00165	0.00222	0.00309	0.0041	0.00554	0.00722	0.00951	0.0123
in methanol	0.00228	0.00304	0.00395	0.00517	0.0066	0.00844	0.0106	0.0135	0.0166
in n-propanol	0.00142	0.00196	0.00266	0.00355	0.00468	0.00612	0.00799	0.0106	0.0134
in propylene glycol	0.0017	0.00233	0.00316	0.00418	0.00547	0.00707	0.00916	0.0117	0.0149
in water	6.6e-06	9.22e-06	1.27e-05	1.7e-05	2.05e-05	2.88e-05	3.87e-05	4.82e-05	6.11e-05
